In US6831075B2, “Heterocyclic substituted pyrazolones” (Cephalon, Inc., priority 1999, dated 2004):

Tests used:
Assay type in all cases: biochemical
[1] = target: T1, baculovirus-expressed human trkA cytoplasmic domain (Homo sapiens, UniProt P04629); assay: trkA tyrosine kinase inhibition assay (ELISA-based); settings: 1 uM compound; 40 μM ATP
T1 construct: baculovirus-expressed human trkA cytoplasmic domain; host or cells: baculovirus expression system
Procedure: Inhibition of trkA Tyrosine Kinase Activity
Selected heterocyclic substituted pyrazolones were tested for their ability to inhibit the kinase activity of baculovirus-expressed human trkA cytoplasmic domain using an ELISA-based assay as previously described (Angeles et al., Anal. Biochem. 236: 49-55, 1996). Briefly, a 96-well microtiter plate was coated with substrate solution (recombinant human phospholipase C-γl/glutathione S-transferase fusion protein (Rotin et al., EMBO J., 11: 559-567, 1992). Inhibition studies were performed in 100 μl assay mixtures containing 50 mM Hepes, pH 7.4, 40 μM ATP, 10 mM MnCl2, 0.1% BSA, 2% DMSO, and various concentrations of inhibitor. The reaction was initiated by addition of trkA kinase and allowed to proceed for 15 minutes at 37° C. An antibody to phosphotyrosine (UBI) was then added, followed by a secondary enzyme-conjugated antibody, alkaline phosphatase-labelled goat anti-mouse IgG (Bio-Rad). The activity of the bound enzyme was measured via an amplified detection system (Gibco-BRL). Inhibition data were analyzed using the sigmoidal dose-response (variable slope) equation in GraphPad Prism.

[2] = target: T2, baculoviral GST-MLK3KD (Homo sapiens, UniProt Q16584); assay: Mixed Lineage Kinase-3 inhibition assay (Millipore Multiscreen plate, 32P); settings: 1 uM compound, 100 μM ATP; for inhibition at 1 µM: read-out: MLK-3 Kinase % inhibition @ 1 uM
T2 construct: 2 μg/ml of baculoviral GST-MLK3KD; GST (N); host or cells: baculovirus expression system
T2 sequence (Q16584 117-379 limits assumed): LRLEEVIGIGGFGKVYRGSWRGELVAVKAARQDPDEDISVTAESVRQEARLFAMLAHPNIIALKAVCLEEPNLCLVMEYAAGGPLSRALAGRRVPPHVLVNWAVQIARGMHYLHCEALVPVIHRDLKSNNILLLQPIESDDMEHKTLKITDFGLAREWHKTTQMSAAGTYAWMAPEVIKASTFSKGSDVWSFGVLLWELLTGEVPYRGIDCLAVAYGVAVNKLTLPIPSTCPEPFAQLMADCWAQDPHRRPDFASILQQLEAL
Procedure: Inhibition of Mixed Lineage Kinase-3 Activity
Assays were performed using the Millipore Multiscreen plate format as described for MLK1. Briefly, each 50-μl assay mixture contained 20 mM Hepes, pH 7, 1 mM EGTA, 10 mM MgCl2, 1 mM DTT, 25 mM β-glycerophosphate, 100 μM ATP, 0.25 μCi [γ-^32P]ATP, 0.1% BSA, 500 μg/ml myelin basic protein (UBI #13-104), 2% DMSO, various concentrations of test compound, and 2 μg/ml of baculoviral GST-MLK3KD. Samples were incubated for 15 min at 37° C. The reaction was stopped by adding ice cold 50% TCA and the proteins were allowed to precipitate for 30 min at 4° C. The plates were then washed with ice cold 25% TCA. Supermix scintillation cocktail was added, and the plates were allowed to equilibrate for 1-2 hours prior to counting.

[3] = target: T3, baculoviral GST-MLK1KD (Homo sapiens, UniProt P80192); assay: Mixed Lineage Kinase-1 inhibition assay (Millipore Multiscreen TCA in-plate, 32P); settings: for MLK-1 Kinase % inhibition @ 1 uM: 1 uM compound, 60 μM ATP; for inhibition at 1 µM: read-out: MLK-1 Kinase % inhibition @ 1 uM
T3 construct: 1 μg/ml of baculoviral GST-MLK1KD; GST (N); host or cells: baculovirus expression system
T3 sequence (P80192 144-412 limits assumed): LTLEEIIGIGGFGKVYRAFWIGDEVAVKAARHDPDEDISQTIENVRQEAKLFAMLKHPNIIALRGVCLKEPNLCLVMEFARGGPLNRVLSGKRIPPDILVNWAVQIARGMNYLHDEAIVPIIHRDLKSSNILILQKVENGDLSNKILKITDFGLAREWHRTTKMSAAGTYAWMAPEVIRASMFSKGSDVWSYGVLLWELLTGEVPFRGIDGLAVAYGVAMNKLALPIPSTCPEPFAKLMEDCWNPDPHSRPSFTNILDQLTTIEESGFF
Procedure: Inhibition of Mixed Lineage Kinase-1 Activity
The kinase activity of MLK1 was assessed using the Millipore Multiscreen TCA “in-plate” format as described for protein kinase C (Pitt & Lee, J. Biomol. Screening, 1: 47-51, 1996). Briefly, each 50-μl assay mixture contained 20 mM Hepes, pH 7.0, 1 mM EGTA, 10 mM MgCl2, 1 mM DTT, 25 mM β-glycerophosphate, 60 μM ATP, 0.25 μCi [γ-^32P]ATP, 0.1% BSA, 500 μg/ml myelin basic protein (UBI #13-104), 2% DMSO, 1 μM of test compound, and 1 μg/ml of baculoviral GST-MLK1KD. Samples were incubated for 15 min at 37° C. The reaction was stopped by adding ice cold 50% TCA and the protein were allowed to precipitate for 30 min at 4° C. The plates were then washed with ice cold 25% TCA. Supermix scintillation cocktail was added, and the plates were allowed to equilibrate for 1-2 hours prior to counting using the Wallac MicroBeta 1450 PLUS scintillation counter.

T1 sequence (P04629 440-796 limits assumed): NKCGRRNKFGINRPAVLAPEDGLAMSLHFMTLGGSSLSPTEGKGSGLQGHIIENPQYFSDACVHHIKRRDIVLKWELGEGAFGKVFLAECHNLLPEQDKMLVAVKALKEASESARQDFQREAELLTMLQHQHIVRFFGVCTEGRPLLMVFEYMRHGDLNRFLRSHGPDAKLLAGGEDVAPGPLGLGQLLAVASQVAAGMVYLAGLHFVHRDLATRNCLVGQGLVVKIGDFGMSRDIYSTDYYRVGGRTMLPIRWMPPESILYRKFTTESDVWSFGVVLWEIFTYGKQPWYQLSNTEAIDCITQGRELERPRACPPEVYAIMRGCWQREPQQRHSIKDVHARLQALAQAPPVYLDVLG

SMILES | trkA % inhibition @ 1 uM [1] | MLK-3 Kinase % inhibition @ 1 uM [2] | MLK-1 Kinase % inhibition @ 1 uM [3] | inhibition at 1 µM [1] | inhibition at 1 µM [2] | inhibition at 1 µM [3]
Cn1ccc(C2=NNC(=O)C2=Cc2c[nH]c3ccc(F)cc23)c1 [Compound 32] | 8% | 42% | 5% |  |  | 
Cc1ccc2c(C=C3C(=O)NN=C3c3ccn(C)c3)c[nH]c2c1 [Compound 33] | 32% | 28% | 8% |  |  | 
Cc1cccc2c(C=C3C(=O)NN=C3c3ccn(C)c3)c[nH]c12 [Compound 34] | 25% | 32% | 17% |  |  | 
Cn1ccc(C2=NNC(=O)C2=Cc2c[nH]c3ccc(Cl)cc23)c1 [Compound 35] | 23% | 34% | 7% |  |  | 
Cc1cc(C)c(C=C2C(=O)NN=C2c2cc(C)oc2C)[nH]1 [Compound 36] | 40% | 25% | −9% |  |  | 
Cc1cc(C)c(C=C2C(=O)NN=C2c2ccsc2)[nH]1 [Compound 37, 4-[(3,5-dimethylpyrrol-2-yl)methylene]-3-(3-thienyl)-2-pyrazolin-5-one] |  |  |  | 28% | 79% | 15%
O=C1NN=C(c2cccs2)C1=Cc1c[nH]c2ccccc12 [Compound 38, 4-(indol-3-ylmethylene)-3-(2-thienyl)-2-pyrazolin-5-one] |  |  |  | 40% | 38% | 16%
Cc1cc(C)c(C=C2C(=O)NN=C2c2csc3ccccc23)[nH]1 [Compound 39] | 31% | 55% | 4% |  |  | 
Cc1cc(C)c(C=C2C(=O)NN=C2c2csc(-c3ccccc3)n2)[nH]1 [Compound 40] | 27% | 22% | 33% |  |  | 
Cc1cc(C)c(C=C2C(=O)NN=C2c2cc(-c3ccc(Cl)cc3)oc2C)[nH]1 [Compound 41] | 17% | 10% | 13% |  |  | 
Cc1oc(-c2ccc(Cl)cc2)cc1C1=NNC(=O)C1=Cc1c[nH]c2ccccc12 [Compound 42] | 29% | 21% | −9% |  |  | 
O=C1NN=C(c2ccco2)C1=Cc1c[nH]c2ccc(OCc3ccccc3)cc12 [Compound 43] | 42% | 21% | 13% |  |  | 
O=C1NN=C(c2ccco2)C1=Cc1c[nH]c2cccc(OCc3ccccc3)c12 [Compound 44] | 23% | 28% | 25% |  |  | 
Cn1cc(C=C2C(=O)NN=C2c2ccco2)c2ccccc21 [Compound 45] | 39% | 56% | 24% |  |  | 
Cc1ccc2c(C=C3C(=O)NN=C3c3ccco3)c[nH]c2c1 [Compound 46] | 29% | 36% | 13% |  |  | 
Cc1cccc2c(C=C3C(=O)NN=C3c3ccco3)c[nH]c12 [Compound 47] | 37% | 31% | 33% |  |  | 

SMILES | trkA % inhibition @ 1 uM [1] | MLK-3 Kinase % inhibition @ 1 uM [2] | MLK-1 Kinase % inhibition @ 1 uM [3] | inhibition at 1 µM [1] | inhibition at 1 µM [2] | inhibition at 1 µM [3]
O=C1NN=C(c2ccco2)C1=Cc1c[nH]c2ccc(F)cc12 [Compound 48] | 47% | 31% | 2% |  |  | 
O=C1NN=C(c2ccco2)C1=Cc1c[nH]c2ccc(Cl)cc12 [Compound 49] | 56% | 21% | −10% |  |  | 
COC(=O)c1ccc2c(C=C3C(=O)NN=C3c3ccco3)c[nH]c2c1 [Compound 50] | 28% | 15% | 11% |  |  | 
COc1ccc2[nH]cc(C=C3C(=O)NN=C3c3ccco3)c2c1 [Compound 51] | 56% | 47% | 26% |  |  | 
CN(C)c1ccc(C=C2C(=O)NN=C2c2ccco2)cc1 [Compound 52] | 10% | 19% | 5% |  |  | 
Cc1nc[nH]c1C=C1C(=O)NN=C1c1ccco1 [Compound 53] | 20% | 12% | 7% |  |  | 
O=C1NN=C(c2ccco2)C1=Cc1ncc[nH]1 [Compound 54] | 20% | 0% | −12% |  |  | 
Cc1cc(C)c(C=C2C(=O)NN=C2c2cccn2C)[nH]1 [Compound 55] | 47% | 26% | −5% |  |  | 
Cn1cccc1C1=NNC(=O)C1=Cc1c[nH]c2ccc(F)cc12 [Compound 56] | 48% | −1% | −22% |  |  | 
Cc1cc(C)c(C=C2C(=O)NN=C2c2cc3ccccc3o2)[nH]1 [Compound 57, 3-benzo[d]furan-2-yl-4-[(3,5-dimethylpyrrol-2-yl)methylene]-2-pyrazolin-5-one] |  |  |  | 33% | 67% | 44%
O=C1NN=C(c2cc3ccccc3o2)C1=Cc1c[nH]c2ccccc12 [Compound 58] | 30% | 43% | 44% |  |  | 
Cn1cc(C=C2C(=O)NN=C2c2cc3ccccc3o2)c2ccccc21 [Compound 59] | 40% | 47% | 41% |  |  | 
Cn1cc(C=C2C(=O)NN=C2c2nccs2)c2ccccc21 [Compound 60] | 71% | 58% | 37% |  |  | 
Cc1cc(C)c(C=C2C(=O)NN=C2c2cccs2)[nH]1 [Compound 61] | 35% | 72% | 8% |  |  | 
O=C1NN=C(c2cccs2)C1=Cc1c[nH]c2ccccc12 [Compound 62] | 45% | 45% | 15% |  |  | 
